According to ChEMBL document CHEMBL6109169, “1,6-Naphthridine Compounds as SMARCA2 Inhibitors for Treating Non-small Cell Lung Cancer” (ACS Med Chem Lett, 2025):

target: SWI/SNF-related matrix-associated actin-dependent regulator of chromatin subfamily A member 2 (Homo sapiens, UniProt P51531); experiment: Inhibition of N-terminal hexa-histidine-tagged truncated human SMARCA2 (470 to 1590 residues) extracted from Sf9 insect cells using poly(dA-dT) linear dsDNA as substrate preincubated for 30 mins followed by substrate/ATP addition measured after 180 mins by ADP-Glo assay; assay type: cell-free
Sequence (P51531 whole entry, the tested form may be a part): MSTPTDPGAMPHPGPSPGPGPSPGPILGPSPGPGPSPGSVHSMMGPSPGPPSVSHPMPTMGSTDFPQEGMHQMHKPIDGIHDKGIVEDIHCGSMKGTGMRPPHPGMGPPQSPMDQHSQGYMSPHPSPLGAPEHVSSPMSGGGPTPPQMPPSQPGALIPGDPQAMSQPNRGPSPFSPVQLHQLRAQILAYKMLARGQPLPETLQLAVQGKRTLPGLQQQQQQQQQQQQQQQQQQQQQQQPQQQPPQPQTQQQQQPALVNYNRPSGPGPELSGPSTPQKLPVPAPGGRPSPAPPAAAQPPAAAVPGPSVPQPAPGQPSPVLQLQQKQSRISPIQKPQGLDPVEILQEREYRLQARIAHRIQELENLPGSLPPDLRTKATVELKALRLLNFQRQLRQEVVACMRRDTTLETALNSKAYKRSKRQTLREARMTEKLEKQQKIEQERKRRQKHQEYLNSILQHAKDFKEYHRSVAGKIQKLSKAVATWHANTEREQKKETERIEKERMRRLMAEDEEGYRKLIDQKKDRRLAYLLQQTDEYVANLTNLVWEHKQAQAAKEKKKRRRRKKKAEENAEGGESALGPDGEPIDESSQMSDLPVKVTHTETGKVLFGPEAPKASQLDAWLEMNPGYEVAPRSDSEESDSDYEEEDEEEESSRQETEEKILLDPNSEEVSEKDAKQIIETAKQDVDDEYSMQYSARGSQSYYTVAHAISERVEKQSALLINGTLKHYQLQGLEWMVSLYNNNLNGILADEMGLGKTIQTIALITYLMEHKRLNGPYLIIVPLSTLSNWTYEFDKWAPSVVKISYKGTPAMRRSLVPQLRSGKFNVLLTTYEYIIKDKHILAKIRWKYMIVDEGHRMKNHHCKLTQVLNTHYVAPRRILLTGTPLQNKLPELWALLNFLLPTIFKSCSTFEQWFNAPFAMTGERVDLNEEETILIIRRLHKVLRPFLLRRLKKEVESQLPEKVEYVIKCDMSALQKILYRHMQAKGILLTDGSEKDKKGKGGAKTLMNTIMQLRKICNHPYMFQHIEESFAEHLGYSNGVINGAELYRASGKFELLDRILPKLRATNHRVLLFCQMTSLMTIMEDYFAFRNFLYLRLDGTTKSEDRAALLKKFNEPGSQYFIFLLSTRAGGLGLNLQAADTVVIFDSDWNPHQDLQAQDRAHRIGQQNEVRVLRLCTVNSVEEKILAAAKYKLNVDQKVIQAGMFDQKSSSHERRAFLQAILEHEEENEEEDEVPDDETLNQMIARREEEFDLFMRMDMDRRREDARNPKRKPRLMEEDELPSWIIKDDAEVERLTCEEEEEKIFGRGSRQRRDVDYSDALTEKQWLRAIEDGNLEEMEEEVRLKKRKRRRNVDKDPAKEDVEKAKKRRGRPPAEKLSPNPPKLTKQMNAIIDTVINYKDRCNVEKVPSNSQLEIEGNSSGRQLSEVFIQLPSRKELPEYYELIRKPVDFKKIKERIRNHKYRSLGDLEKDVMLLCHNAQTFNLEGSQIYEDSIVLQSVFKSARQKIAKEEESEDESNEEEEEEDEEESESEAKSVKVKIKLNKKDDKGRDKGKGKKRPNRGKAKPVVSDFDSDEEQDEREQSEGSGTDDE

IC50 [nM]	Structure (SMILES)
3.6	CCS(=O)(=O)N1CCc2ccc(C(=O)NCc3cc4nc(-c5cccc(N6C[C@@H](C)O[C@@H](C)C6)n5)ccc4cn3)cc21
2.27	C[C@@H]1CN(c2cccc(-c3ccc4cnc(CNC(=O)c5cc(Cl)c6c(c5)N(S(C)(=O)=O)CC6)cc4n3)n2)C[C@H](C)O1
8.14	C=CCS(=O)(=O)N1CCc2ccc(C(=O)NCc3cc4nc(-c5cccc(N6C[C@@H](C)O[C@@H](C)C6)n5)ccc4cn3)cc21
